The record followed here is ChEMBL document CHEMBL1128639, “Mechanism of inhibition of poly(ADP-ribose) glycohydrolase by adenosine diphosphate (hydroxymethyl)pyrrolidinediol” (J Med Chem, 1995).

Experiment [1] can be described thus: Compound was tested for its inhibitory activity against venom NAD glycohydrolase. Also on record: species or system Bungarus fasciatus.
A short description of experiment [2]: Compound was tested for the inhibitor activity against NAD glycohydrolase. More on the design: species or system Bungarus fasciatus.
The target in experiment [3] is Poly(ADP-ribose) glycohydrolase (Bos taurus) (UniProt O02776). The experiment is described as follows: Kid describes the approach of hyperbolic function to its new limiting value as [I] increases, for the 1/V vs [I] replot.
Sequence of Poly(ADP-ribose) glycohydrolase (Bos taurus) (O02776 whole entry): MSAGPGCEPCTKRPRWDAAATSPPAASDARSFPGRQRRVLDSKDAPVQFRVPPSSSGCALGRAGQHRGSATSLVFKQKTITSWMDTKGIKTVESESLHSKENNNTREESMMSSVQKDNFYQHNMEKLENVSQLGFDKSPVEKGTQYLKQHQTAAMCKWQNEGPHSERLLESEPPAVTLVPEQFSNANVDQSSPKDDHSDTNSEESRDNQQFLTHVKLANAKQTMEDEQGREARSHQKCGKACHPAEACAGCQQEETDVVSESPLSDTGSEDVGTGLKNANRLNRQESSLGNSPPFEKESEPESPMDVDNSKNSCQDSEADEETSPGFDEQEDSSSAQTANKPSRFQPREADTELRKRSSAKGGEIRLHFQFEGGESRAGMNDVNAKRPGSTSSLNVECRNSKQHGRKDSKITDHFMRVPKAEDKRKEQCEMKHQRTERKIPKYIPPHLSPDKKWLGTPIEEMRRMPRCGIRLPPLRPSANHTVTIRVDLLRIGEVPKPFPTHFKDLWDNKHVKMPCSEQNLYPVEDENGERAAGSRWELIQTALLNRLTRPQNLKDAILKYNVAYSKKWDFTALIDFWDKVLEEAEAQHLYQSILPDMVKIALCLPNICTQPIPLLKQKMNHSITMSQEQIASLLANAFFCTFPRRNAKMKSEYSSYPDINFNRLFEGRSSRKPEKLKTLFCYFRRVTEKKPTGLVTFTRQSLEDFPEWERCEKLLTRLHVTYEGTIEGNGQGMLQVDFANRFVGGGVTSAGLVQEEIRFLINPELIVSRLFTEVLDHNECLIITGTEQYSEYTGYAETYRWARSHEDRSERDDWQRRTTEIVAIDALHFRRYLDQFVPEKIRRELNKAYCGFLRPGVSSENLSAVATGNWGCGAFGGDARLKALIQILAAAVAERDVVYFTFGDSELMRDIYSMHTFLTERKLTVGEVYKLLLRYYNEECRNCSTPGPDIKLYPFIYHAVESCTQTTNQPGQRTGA
Experiment [4] has the same target. Kind of experiment: Kid describes the approach of hyperbolic function to its new limiting value as [I] increases, for the KM/V vs [I] replot.
Experiment [5] has the same target. Kind of experiment: Inhibitor dissociation constant for the 1/V vs [I] replot.
Experiment [6] shares this target. The experiment is described as follows: Inhibitor dissociation constant was determined by the analysis of the slope versus [inhibitor] replot.e.K.

`Nc1ncnc2c1ncn2[C@@H]1O[C@H](COP(=O)(O)OP(=O)(O)OC[C@H]2NC[C@H](O)[C@@H]2O)[C@@H](O)[C@H]1O` [ADENOSINE DIPHOSPHATE (HYDROXYMETHYL)PYRROLIDINEDIOL]: the midpoint of inhibition in experiment [1], the IC50, lay at 260 µM. Also, the Ki in experiment [2] stood at 94 µM. Further, the Kid was 0.21 µM in experiment [3] and 0.26 µM in experiment [4]. Moreover, the Kin in experiment [5] was 0.052 µM; in experiment [6], 0.08 µM.
